Assays:
[1] = Mouse CNS exposure (plasma, CSF, brain); assay type: in vivo, male C57BL/6J mice; conditions: SC 1 mg/kg, 60 min
Experimental: (§1) These rats were typically about 6-8 weeks old, weighing 200 g to 300 g. Animals were fasted overnight and free access to food 4 hours after dosing. A required volume of vehicle was added to reach the target concentration of the test article and vehicle component to prepare for the dosing. The dosing vehicle was PEG400 or 30% PEG400 in saline for IV, or 0.5% methylcellulose in water for PO. For IV dosing, the animals were administered intravenously via tail vein. For PO dosing, the animals were administered via oral gavage. After dosing, blood sample was collected (˜0.2 mL per time point) through jugular vein or heart puncture. Blood of each sample was transferred into plastic micro centrifuge tubes containing EDTA-K2. Collection tubes with blood samples and anticoagulant were inverted several times for proper mixing of the tube contents and then placed on wet ice. The blood samples were centrifuged at 2000 g for 5 minutes at 4° C. to obtain plasma which was stored in a freezer at −75±15° C. prior to analysis. Samples were analyzed using LC-MS/MS. WinNonlin were used for pharmacokinetic calculations.
(§2) For CSF sampling, after anesthesia, the foramen magnum was exposed, and a syringe was used with a venoclysis needle to sample the CSF. The CSF samples were stored in polypropylene tubes, then stored in a freezer at −75±15° C. prior to analysis.
(§3) For brain sampling, the rats were fully exsanguinated by using a risen of carbon dioxide prior to brain collection. Brain samples were then collected at adopted time point, quick frozen and kept at −75±15° C. All brain samples were weighted and homogenated with PBS by brain weight (g) to PBS volume (mL) ratio 1:3 before analysis. The actual concentration is the detected value multiplied by the dilution factor.
These mice were typically about 6-8 weeks old, weighing 20 g to 30 g. Animals were free access to food before dosing. Sample amount was ˜0.03 mL per time point and sample site was dorsal metatarsal or heart puncture.

[2] = Rat CNS exposure (plasma, CSF, brain); assay type: in vivo, male SD rats; conditions: SC 1 mg/kg, 1.00 h
Experimental: as §1, §2, §3

[3] = tested on: MDCK-MDR1 cells; assay: MDCK-MDR1 permeability assay; assay type: in vitro ADME; design: A-B (Papp apical to basolateral) / B-A (Papp basolateral to apical): unit not given here
Experimental: Preparation of MDCK-MDR1 Cells. Cell culture medium of was added to each well of the Transwell insert (50 μL) and reservoir (25 mL). The HTS transwell plates were then incubated at 37° C., 5% CO2 for 1 hour before cell seeding. MDCK-MDR1 cells were diluted to 1.56×10^6 cells/mL with culture medium and 50 μL of cell suspension were dispensed into the filter well of the 96-well HTS Transwell plate. Cells were cultivated for 4-8 days in a cell culture incubator at 37° C., 5% CO2, 95% relative humidity. Cell culture medium was replaced every other day, beginning no later than 24 hours after initial plating.
Preparation of Stock Solutions. 10 mM stock solutions of test compounds were prepared in DMSO. The stock solutions of positive controls were prepared in DMSO at the concentration of 10 mM. Metoprolol, prazosin and imatinib were used as control compounds in this assay.
Assessment of Cell Monolayer Integrity. Medium was removed from the reservoir and each Transwell insert and replaced with prewarmed fresh culture medium. Transepithelial electrical resistance (TEER) across the monolayer was measured using Millicell Epithelial Volt-Ohm measuring system (Millipore, USA). The Plate was returned to the incubator once the measurement was done. TEER value should be greater than 42 ohm·cm2, which indicates the well-qualified MDCK-MDR1 monolayer. The TEER value was calculated according to the following equation: TEER measurement (ohms)×Area of membrane (cm^2)=TEER value (ohm·cm^2)
Assay Procedures. The MDCK-MDR1 plate was removed from the incubator and washed twice with pre-warmed HBSS (10 mM HEPES, pH 7.4), and then incubated at 37° C. for 30 minutes. The stock solutions of test compounds and controls were diluted in DMSO to get 1 mM solutions and then diluted with HBSS (10 mM HEPES, pH 7.4) to get 5 μM working solutions. The final concentration of DMSO in the incubation system was 0.5%. […]

**Q.** With `Cc1ncccc1[C@@H](O)CNC(C)(C)C` [Compound 03-115] as the compound, how does the “Concentration, Brain” value [1] read?
**A.** 280 ng/g

**Q.** What about the “Concentration, CSF” value [1] of the same compound?
**A.** 157 ng/mL

**Q.** What about the “Concentration, Plasma” value [1] of the same compound?
**A.** 270 ng/mL

**Q.** What about the “Concentration, Brain” value [2] of the same compound?
**A.** 142 ng/g

**Q.** And the “Concentration, CSF” value [2]?
**A.** 56.2 ng/mL

**Q.** And the “Concentration, Plasma” value [2]?
**A.** 149 ng/mL

**Q.** What about the “A-B (Papp apical to basolateral)” value ([3]; MDCK-MDR1, 5 μM, 2 hours) of the same compound?
**A.** 6.96

**Q.** What about the “B-A (Papp basolateral to apical)” value ([3]; MDCK-MDR1, 5 μM, 2 hours) of the same compound?
**A.** 10.98

**Q.** And the “Efflux Ratio” value ([3]; MDCK-MDR1, Papp (B-A)/Papp (A-B))?
**A.** 1.58

Source: patent US12448352B2, “Beta adrenergic agonist and methods of using the same” (Curasen Therapeutics, Inc., priority 2019, dated 2025)
